{"source": "paper PMC6385875", "about": "(Inorganica chimica acta, 2018)", "test": "In vitro integrity of tracers in buffer at physiological pH by HPLC", "format": "physicochemical", "settings": "incubated at physiological pH for up to 6 h", "data": [{"substance": "^99mTc(CO)3(PMIDA) [^99mTc-1]", "values": [{"measurement": "in vitro stability (decomposition by HPLC)", "result": "No measurable decomposition"}]}]}
